The results in this text go back to patent publication US20060067923A1, “Preventing agent against drug-resistant bacterial infection” (priority 2004, published 2006).

This experiment deals with Enterococcus faecalis ATCC 51299 strain. Put plainly: MIC levels of antibiotics against Vancomycin-resistant bacteria. Type of experiment: cell-based. From the text: Enterococcus faecalis ATCC 51299 strain was used as Vancomycin-resistant bacteria.
Setting [1] is: Enterococcus faecalis, ATCC51299, 16 h; read-out: MIC levels after 16 hours of culture.
Setting [2] is: Enterococcus faecalis, ATCC51299, 24 h; read-out: MIC levels after 24 hours of culture.

Converted amounts (≈) assume the structure as drawn. Read-outs that look alike come from different tables or passages of the source. Positions of bridges follow the written chain, without caps; N, C: chain ends. Non-standard residues stand in square brackets, D forms with d. Residues, ends and D or L forms follow the SMILES beside them. *: point of attachment. Ileψ(thiazoline)Cys = CC[C@H](C)[C@H](N)C1=N[C@H](C(=O)*)CS1; dOrn = NCCC[C@@H](N)C(=O)O Some results are limits rather than exact numbers.

For the compound Teicoplanin, the “MIC levels after 16 hours of culture” value (16 hours of culture) was 1 µg/mL. Further, for the setting “24 hours of culture”, the “MIC levels after 24 hours of culture” value is 1 µg/mL.
Turning to `CN(C)[C@@H]1C(O)=C(C(N)=O)C(=O)[C@@]2(O)C(O)=C3C(=O)c4c(O)cccc4[C@@](C)(O)[C@H]3C[C@@H]12` [Tetracycline], the minimal inhibitory concentration (MIC) reads like this: under setting [1], 0.5 µg/mL (≈ 1.13 µM); under setting [2], 1 µg/mL (≈ 2.25 µM).
In the same order, the values of `Cc1onc(-c2ccccc2)c1C(=O)N[C@@H]1C(=O)N2[C@@H]1SC(C)(C)[C@@H]2C(=O)O` [Oxacillin] are 32 µg/mL (≈ 79.7 µM) and 64 µg/mL (≈ 159 µM).
Regarding Gentamicin, the “MIC levels after 16 hours of culture” value (16 hours of culture) is greater than 512 µg/mL. Besides, the “MIC levels after 24 hours of culture” value (24 hours of culture) was greater than 512 µg/mL.
Turning to `CC1(C)S[C@@H]2[C@H](NC(=O)[C@H](N)c3ccccc3)C(=O)N2[C@H]1C(=O)O` [Ampicillin], the MIC worked out at 0.5 µg/mL (≈ 1.43 µM) under setting [1] and 0.5 µg/mL (≈ 1.43 µM) under setting [2].
As to `[H]/N=C(/N)N[C@H]1[C@H](O)[C@@H](O)[C@H](O[C@@H]2O[C@@H](C)[C@](O)(C=O)[C@H]2O[C@@H]2O[C@@H](CO)[C@H](O)[C@@H](O)[C@@H]2NC)[C@@H](N/C(N)=N\[H])[C@@H]1O` [Streptomycin], the minimum inhibitory concentration (MIC) by setting is: under setting [1], greater than 512 µg/mL; under setting [2], greater than 512 µg/mL.
Regarding `CC[C@H]1OC(=O)[C@H](C)[C@@H](O[C@H]2C[C@@](C)(OC)[C@@H](O)[C@H](C)O2)[C@H](C)[C@@H](O[C@@H]2O[C@H](C)C[C@H](N(C)C)[C@H]2O)[C@](C)(O)C[C@@H](C)C(=O)[C@H](C)[C@@H](O)[C@]1(C)O` [Erythromycin], the MIC is, setting by setting: under setting [1], 512 µg/mL (≈ 698 µM); under setting [2], greater than 512 µg/mL.
Regarding `CN[C@H](CC(C)C)C(=O)N[C@H]1C(=O)N[C@@H](CC(N)=O)C(=O)N[C@H]2C(=O)N[C@H]3C(=O)N[C@H](C(=O)N[C@H](C(=O)O)c4cc(O)cc(O)c4-c4cc3ccc4O)[C@H](O)c3ccc(c(Cl)c3)Oc3cc2cc(c3O[C@@H]2O[C@H](CO)[C@@H](O)[C@H](O)[C@H]2O[C@H]2C[C@](C)(N)[C@H](O)[C@H](C)O2)Oc2ccc(cc2Cl)[C@H]1O` [Vancomycin], the MIC (Enterococcus faecalis, ATCC51299, 16 h, read-out: MIC levels after 16 hours of culture) was 16 µg/mL (≈ 11 µM) and the MIC (Enterococcus faecalis, ATCC51299, 24 h, read-out: MIC levels after 24 hours of culture) stood at 64 µg/mL (≈ 44.2 µM).
With `O=C(N[C@H](CO)[C@H](O)c1ccc([N+](=O)[O-])cc1)C(Cl)Cl` [Chloramphenicol], the MIC stood at 64 µg/mL (≈ 198 µM) under setting [1] and 128 µg/mL (≈ 396 µM) under setting [2].
On the same counts, the results for `CC[C@H](C)[C@H](N)C1=N[C@H](C(=O)N[C@@H](CC(C)C)C(=O)N[C@H](CCC(=O)O)C(=O)N[C@H](C(=O)N[C@H]2CCCCNC(=O)[C@H](CC(N)=O)NC(=O)[C@@H](CC(=O)O)NC(=O)[C@H](Cc3cnc[nH]3)NC(=O)[C@@H](Cc3ccccc3)NC(=O)[C@H]([C@@H](C)CC)NC(=O)[C@@H](CCCN)NC2=O)[C@@H](C)CC)CS1` [Bacitracin] ({Ileψ(thiazoline)Cys}-L[dE]IK[dOrn]I[dF]H[dD]N; lactam 4-C) are 64 µg/mL (≈ 45 µM) and 128 µg/mL (≈ 90 µM).
